Where two headings read alike, the source gives them in different places.
Key:
[1] = test system: HSV-1; assay: Extracellular activity, inhibition of plaque forming units, HSV-1; details: extracellular, HSV-1 + 2 × Cmpd (20 μM), relative viral conc 100
[2] = test system: HSV-2; assay: HSV-2 plaque size, extracellular treatment; type: cell-based, Herpes simplex virus type 2; details: for Mean plaque diameter (±SD), Treated: extracellularly; for reduction in plaque size: virus treated extracellularly
[3] = test system: Poliovirus-2; assay: organism not typed; type: cell-based
[4] = test system: HSV-1; assay: Intracellular activity, inhibition of plaque forming units, HSV-1; type: cell-based, Herpes simplex virus type 1; details: for intracellular antiviral activity: HSV-1, 10 μM; for Plaque Forming Units Mean ± SD: intracellular
[5] = test system: HSV-2; assay: HSV-2 plaque size, intracellular treatment; type: cell-based, Herpes simplex virus type 2
Procedure: For antiviral studies the diameter of plaques is determined with the aid of a calibrated micrometer slide and a microscope eye piece having scaled markings. A simple random sample is taken and all plaque diameters are measured for both experimental and control groups. Plaque diameter also serves as an indication of inhibition of viral replication. […] Monolayers are then infected, washed with EBSS and | maintenance medium with or without compound added. Cells are stained afte | 48 hours with crystal violet and the plaque diameters are determined with | the aid of a micrometer.

[6] = test system: Buffalo green monkey kidney (BGM 70) cells; assay: [3H]-thymidine uptake cytotoxicity; type: cell-based; details: for inhibition at 0.4 µM / inhibition at 1.6 µM / inhibition at 2.5 µM / inhibition at 10 µM: Chlorocebus sabaeus, read-out: % Inhibition of [3H]-Thymidine Incorporated; for inhibition at 0.4 µM: 0.4 μmol/L; for inhibition at 1.6 µM: 1.6 μmol/L; for inhibition at 2.5 µM: 2.5 μmol/L; for inhibition at 10 µM: 10.0 μmol/L; for toxicity ([3H]-thymidine uptake and/or cell growth): at 10 μM
[7] = test system: Poliovirus-2; assay: organism not typed; type: cell-based; remark: listed apart in the source
[8] = test system: HSV; assay: Selectivity among the viruses tested; type: cell-based, Herpes simplex virus
[9] = test system: VSV; assay: microbe, parasite or virus in culture; type: cell-based, Vesicular stomatitis virus
[10] = listed as 3,4-dihydroxy-2H-1-benzopyran-2-one

`O=c1oc2ccccc2c(O)c1O` [Compound 5, 3,4-dihydroxy-2H-1-benzopyran-2-one] was tested, and the “Plaque Forming Units Mean ± SD” value [1] was 9.3 ± 1.5, the inhibition at 10 µM ([2]; Human alphaherpesvirus 2, extracellularly, 10 μM, relative viral conc 1, read-out: % Inhib (mean plaque diameter)) was 6% and the inhibition at 10 µM ([2]; Human alphaherpesvirus 2, extracellularly, 10 μM, relative viral conc 10, read-out: % Inhib (mean plaque diameter)) was 1%. The inhibition at 20 µM ([2]; Human alphaherpesvirus 2, extracellularly, 20 μM, relative viral conc 10, read-out: % Inhib (mean plaque diameter)) was 1%, the “Mean plaque diameter (±SD), Treated” value ([2]; 10 μM, relative viral conc 1) was 449 ± 70 micrometers and the “Mean plaque diameter (±SD), Treated” value ([2]; 10 μM, relative viral conc 10) was 500 ± 100 micrometers. For the same compound, the “Mean plaque diameter (±SD), Treated” value ([2]; 20 μM, relative viral conc 10) was 486 ± 80 micrometers, the “reduction in plaque size” value ([2]; 10 μM) was “no significant reduction” and the “reduction in plaque size” value ([2]; 10 μM, listed as 3,4-dihydroxy-2H-1-benzopyran-2-one) was “no reduction in plaque size”. For the same compound, the intracellular antiviral activity ([3]; poliovirus-2, n=2) was “no antiviral activity”, the inhibition at 10 µM ([3]; read-out: % Inhibition of Plaque Forming Units, Intracellularly) was 2.1% and the intracellular antiviral activity [4] was “shows both intra- and extra- cellular antiviral activity”. The intracellular antiviral activity [4, 10] was “exhibits both intracellular and extracellular activity”, the inhibition at 10 µM ([4]; Human alphaherpesvirus 1, HSV-1, 10 μM, P<0.01, read-out: inhibition (PFU), intracellularly) was 25 to 39% and the inhibition at 10 µM ([4]; Human alphaherpesvirus 1, HSV-1, 10 μM, read-out: % Inhibition of Plaque Forming Units, Intracellularly) was 38.4 ± 5.7%. The inhibition at 10 µM ([4]; Human alphaherpesvirus 1, intracellular, HSV-1: 1 × Cmpd (10 μM), relative viral conc 10, read-out: % Inhibition) was 25%, the inhibition at 10 µM ([4]; Human alphaherpesvirus 1, intracellular, HSV-1: 1 × Cmpd (10 μM), relative viral conc 100, read-out: % Inhibition) was 38% and the “Plaque Forming Units Mean ± SD” value ([4]; HSV-1: 1 × Cmpd (10 μM), relative viral conc 10) was 11.0 ± 1.0. The “Plaque Forming Units Mean ± SD” value ([4]; HSV-1: 1 × Cmpd (10 μM), relative viral conc 100) was 106.6 ± 9.3, the inhibition at 10 µM ([5]; Human alphaherpesvirus 2, 48 h, viral-infected cells, 10 μM, read-out: reduction in plaque size) was 56% and the inhibition at 10 µM ([5]; Human alphaherpesvirus 2, intracellularly, 10 μM, relative viral conc 10, read-out: % Inhib (mean plaque diameter)) was 56%. For the same compound, the inhibition at 20 µM ([5]; Human alphaherpesvirus 2, intracellularly, 20 μM, relative viral conc 10, read-out: % Inhib (mean plaque diameter)) was 60%, the “Mean plaque diameter (±SD), Treated” value ([5]; intracellularly, 10 μM, relative viral conc 1) was 213 ± 79 micrometers and the “Mean plaque diameter (±SD), Treated” value ([5]; intracellularly, 10 μM, relative viral conc 10) was 221 ± 89 micrometers. For the same compound, the “Mean plaque diameter (±SD), Treated” value ([5]; intracellularly, 20 μM, relative viral conc 1) was 205 ± 90 micrometers, the “Mean plaque diameter (±SD), Treated” value ([5]; intracellularly, 20 μM, relative viral conc 10) was 202 ± 88 micrometers and the inhibition at 0.4 µM ([6]; 24 h) was 0%. The inhibition at 1.6 µM ([6]; 24 h) was 0%, the inhibition at 2.5 µM ([6]; 24 h) was 0% and the inhibition at 10 µM ([6]; 24 h) was 28.4 ± 7.6%. The inhibition at 0.4 µM ([6]; 48 h) was 0%, the inhibition at 1.6 µM ([6]; 48 h) was 0% and the inhibition at 2.5 µM ([6]; 48 h) was 0%. It also gave an inhibition at 10 µM ([6]; 48 h) of 26.3 ± 6.3%, an inhibition at 0.4 µM ([6]; 72 h) of 0% and an inhibition at 1.6 µM ([6]; 72 h) of 0%. For the same compound, the inhibition at 2.5 µM ([6]; 72 h) was 0%, the inhibition at 10 µM ([6]; 72 h) was 0% and the “toxicity ([3H]-thymidine uptake and/or cell growth)” value [6] was “no toxicity”. For the same compound, the “toxicity ([3H]-thymidine uptake and/or cell growth)” value [6, 10] was “non-toxic”, the extracellular antiviral activity ([7]; poliovirus-2, n=2) was “no antiviral activity” and the inhibition at 10 µM ([7]; read-out: % Inhibition of Plaque Forming Units, Extracellularly) was 2.7%. The “selectivity for HSV among the viruses tested” value [8] was “selective for HSV among the viruses tested”, the intracellular antiviral activity ([9]; VSV, n=2) was “no antiviral activity” and the inhibition at 10 µM ([9]; Vesicular stomatitis virus, read-out: % Inhibition of Plaque Forming Units, Intracellularly) was 0%.

Reference: US5185366A, “Method for treatment and prevention of diseases caused by enveloped viruses, including herpes simplex virus types 1 and 2 diseases, using 3,4-dihydroxy-2H-benzopyran-2H-one” (Ohio State University Research Foundation, priority 1990, dated 1993)
